Experimental data taken from patent US20080153700A1, “Fungicidal Mixtures” (Basf Aktiengesellschaft, priority 2004, published 2008).

Test system: Plasmopara viticola
Assay: activity against peronospora of grapevines caused by Plasmopara viticola (protective spray on potted vines)
Assay type: in vivo, Plasmopara viticola on vines of the cultivar "Riesling"
Settings: individual active compound, untreated control 88% infection
Procedure: The active compounds, separately or jointly, were prepared as a stock solution comprising 0.25% by weight of active compound in acetone or DMSO. 1% by weight of the emulsifier Uniperol® EL (wetting agent having emulsifying and dispersant action based on ethoxylated alkylphenols) was added to this solution, and the mixture was diluted with water to the desired concentration.
Use example—activity against peronospora of grapevines caused by Plasmopara viticola
Leaves of potted vines of the cultivar “Riesling” were sprayed to runoff point with an aqueous suspension having the concentration of active compound stated below. The next day, the undersides of the leaves were inoculated with an aqueous zoospore suspension of Plasmopara viticola. The grapevines were then initially placed in a water-vapor-saturated chamber at 24° C. for 48 hours and then in a greenhouse at 20-30° C. for 5 days. After this period of time, the plants were again placed in a humid chamber for 16 hours to promote sporangiophore eruption. The extent of the development of the disease on the undersides of the leaves was then determined visually.
The visually determined percentages of infected leaf areas were converted into efficacies in % of the untreated control:
The efficacy (E) is calculated as follows using Abbot's formula: […]
α corresponds to the fungicidal infection of the treated plants in % and β corresponds to the fungicidal infection of the untreated (control) plants in %
An efficacy of 0 means that the infection level of the treated plants corresponds to that of the untreated control plants; an efficacy of 100 means that the treated plants were not infected.
The expected efficacies of mixtures of active compounds were determined using Colby's formula (Colby, S. R. “Calculating synergistic and antagonistic responses of herbicide combinations”, Weeds, 15, 20-22, 1967) and compared with the observed efficacies.
E expected efficacy, expressed in % of the untreated control, when using the mixture of the active compounds A and B at the concentrations a and b x efficacy, expressed in % of the untreated control, when using the active compound A at the concentration a y efficacy, expressed in % of the untreated control, when using the active compound B at the concentration b

| SMILES | Efficacy in % of the untreated control (16 ppm in the spray liquor) | Efficacy in % of the untreated control (63 ppm in the spray liquor) |
| --- | --- | --- |
| CC1CCN(c2c(-c3c(F)cc(F)cc3F)c(Cl)nc3ncnn23)CC1 [compound I, 5-chloro-7-(4-methylpiperidin-1-yl)-6-(2,4,6-trifluorophenyl)[1,2,4]triazolo[1,5-a]pyrimidine] | 55% | 66% |
| Cc1ccc(N(SC(F)(Cl)Cl)S(=O)(=O)N(C)C)cc1 [compound II, N-dichlorofluoromethylthio-N′,N′-dimethyl-N-p-tolylsulfamide] | 0% | 21% |
